Results on 22 compounds are retold here after patent US20230031406A1, “COMPOUNDS AND COMPOSITIONS FOR TREATING CONDITIONS ASSOCIATED WITH NLRP ACTIVITY” (Novartis AG, priority 2018, published 2023).

Read-outs that look alike come from different tables or passages of the source. A value given as a limit tells only on which side of the number the result lay.

This test concerns PMA-differentiated THP-1 cells. In words: IL-1β production in PMA-differentiated THP-1 cells stimulated with gramicidin (hTHP-1 assay containing 2% fetal bovine serum; Procedures 1 and 2). Type of test: cell-based, human. The settings on record: 2% fetal bovine serum. In outline:
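PMA-primed (20 ng/ml, 16-18 h) THP-1 cells in RPMI with 2% FBS, 50,000 cells/well, were preincubated 1 h with compound (0.0017-100 μM final, 0.37% DMSO), then stimulated 2 h with 5 μM gramicidin. Supernatant IL-1β measured by HTRF.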

[1] abbreviates: Table B2, class symbols, read-out: hTHP-1 IC50.
Where [2] appears, read: Homo sapiens, THP-1, Table B3, hTHP-1 assay, class symbols, read-out: IC50.
Setting [3] is: Homo sapiens, THP-1, Table B2, numeric bounds, read-out: hTHP-1 IC50.
[4] abbreviates: Homo sapiens, THP-1, Table B2, class symbols, read-out: hTHP-1 IC50.
[5] abbreviates: Homo sapiens, THP-1, Table B1, class symbols, read-out: Average IC50 of compounds in hTHP-1 assay: hTHP-1 IC50.
The mark [6] stands for this setting: Table B1, class symbols, read-out: Average IC50 of compounds in hTHP-1 assay: hTHP-1 IC50.

The term IC50 denotes the concentration that inhibits the measured activity by half. Turning to `CC(C)(O)c1sc(S(N)(=O)=NC(=O)Nc2c3c(nc4c2CCC4(C)C)CCC3)cc1F` (single isomer, unassigned) [Compound 613a, (R) or (S)-N′-((3,3-dimethyl-1,2,3,5,6,7-hexahydrodicyclopenta [b,e]pyridin-8-yl)carbamoyl)-4-fluoro-5-(2-hydroxypropan-2-yl)thiophene-2-sulfonimidamide], the IC50 under setting [1] was in the range of 40 to 200 nM.

For `CC1(C)CCc2c1nc1c(c2NC(=O)N=[S@@](N)(=O)c2sc(C(O)(CO)CO)nc2CO)CCC1` [Compound 985a], the 50% inhibitory concentration (IC50) under setting [2] was 1000 to 5000 nM.

Take `CCn1cc(F)c(S(N)(=O)=NC(=O)Nc2c3c(nc4c2CC[C@H]4C)CCC3)n1` (single isomer, unassigned) [Example 670, (S) or (R)-1-ethyl-4-fluoro-N′-(((R)-3-methyl-1,2,3,5,6,7-hexahydrodicyclopenta[b,e]pyridin-8-yl)carbamoyl)-1H-pyrazole-3-sulfonimidamide]: the half-inhibitory concentration (IC50) (Table B3, hTHP-1 assay, class symbols, read-out: IC50) fell in the range of 1000 to 5000 nM.

In the case of `CC(C)(O)c1cc(F)c(S(N)(=O)=NC(=O)Nc2c3c(nc(C(F)(F)F)c2C2CC2)CCC3)s1` (stereo not shown) [Example 610], the IC50 under setting [2] was 200 to 1000 nM.

For `CC1(C)Cc2nc3c(c(NC(=O)N=S(N)(=O)c4cnc(C(C)(C)O)s4)c2C1)CCC3` (single isomer, unassigned) [Compound 147a, (S) or (R)-N′-((2,2-dimethyl-1,2,3,5,6,7-hexahydrodicyclo-penta[b,e]pyridin-8-yl)carbamoyl)-2-(2-hydroxypropan-2-yl)thiazole-5-sulfonimidamide], the half-inhibitory concentration (IC50) (Homo sapiens, THP-1, Table B1, numeric bounds, read-out: Average IC50 of compounds in hTHP-1 assay: hTHP-1 IC50) is greater than 30000 nM.

For the compound `Cc1cc(S(N)(=O)=NC(=O)Nc2c3c(nc4c2CCC4)CCC3)sc1C(C)(C)O` (single isomer, unassigned) [Compound 692b, (R) or (S)-N′-((1,2,3,5,6,7-hexahydrodicyclopenta [b,e]pyridin-8-yl)carbamoyl)-5-(2-hydroxypropan-2-yl)-4-methylthiophene-2-sulfonimidamide], under setting [1], the concentration for half-maximal inhibition (IC50) was 1000 to 5000 nM.

Consider `CN(C)Cc1nc(C(C)(C)O)sc1[S@](N)(=O)=NC(=O)Nc1c2c(nc3c1CCC3(C)C)CCC2` [Compound 709], for which the 50% inhibitory concentration (IC50) under setting [3] was greater than 30000 nM.

For `CC1CCc2c1nc1c(c2NC(=O)N=S(N)(=O)c2cc(C(C)(C)O)n(-c3ccccc3)n2)CCC1` (single isomer, unassigned) [Compound 664b, (R) or (S)-5-(2-Hydroxypropan-2-yl)-N′-((3-methyl-1,2,3,5,6,7-hexahydrodicyclopenta [b,e]pyridin-8-yl)carbamoyl)-1-phenyl-1H-pyrazole-3-sulfonimidamide], under setting [4], the IC50 is 1000 to 5000 nM.

As to `CC(C)c1nc(C(F)(F)F)nc(C(C)C)c1NC(=O)N=S(N)(=O)c1sc(C(C)(C)O)nc1CO` (stereo not shown) [Compound 713], under setting [4], the IC50 was 1000 to 5000 nM.

In the case of `CC(C)c1ncc(F)c(C(C)C)c1NC(=O)N=S(N)(=O)c1ccc(CN(C)C)cc1` (single isomer, unassigned) [Compound 132a, (R) or (S)-4-((dimethyl-amino)methyl)-N′-((5-fluoro-2,4-diisopropylpyridin-3-yl)carbamoyl)benzene-sulfonimidamide], the IC50 under setting [5] fell in the range of 5000 to 30000 nM.

Turning to `COCc1nc(C(C)(C)O)sc1S(N)(=O)=NC(=O)Nc1c2c(nc3c1CCC3)CCC2` (single isomer, unassigned) [Compound 689a, (S) or (R)-N′-((1,2,3,5,6,7-hexahydrodicyclopenta [b,e]pyridin-8-yl)carbamoyl)-2-(2-hydroxypropan-2-yl)-4-(methoxymethyl) thiazole-5-sulfonimidamide], under setting [3], the IC50 is greater than 30000 nM.

With `CC(C)(O)c1csc(S(N)(=O)=NC(=O)Nc2cc(C3CC3)nc3c2CCC3)c1` (single isomer, unassigned) [Compound 176a, (S) or (R)-N′-((2-cyclopropyl-6,7-dihydro-5H-cyclopenta[b]pyridin-4-yl)carbamoyl)-4-(2-hydroxypropan-2-yl)thiophene-2-sulfonimidamide], the IC50 under setting [3] was greater than 30000 nM.

Turning to `CCn1ccc(S(N)(=O)=NC(=O)Nc2c3c(nc4c2CCC42CC2)CCC3)n1` (stereo not shown) [Compound 604, 1-Ethyl-N′-((1′,5′,6′,7′-tetrahydro-2′H-spiro[cyclopropane-1,3′-dicyclopenta[b,e]pyridin]-8′-yl)carbamoyl)-1H-pyrazole-3-sulfonimidamide], the IC50 under setting [4] lay in the range of 200 to 1000 nM.

`CC1CCc2c1nc1c(c2NC(=O)N=S(N)(=O)c2cc(C(C)(C)O)cs2)CCC1C` [Compound 131aab, (R,R,S) and (R,S,R)-N′-((3,5-dimethyl-1,2,3,5,6,7-hexa-hydrodicyclo-penta[b,e]pyridin-8-yl)carbamoyl)-4-(2-hydroxypropan-2-yl)thiophene-2-sulfonimidamide]: the IC50 under setting [6] lay in the range of 200 to 1000 nM.

With `CC(C)n1nc(S(N)(=O)=NC(=O)Nc2c3c(nc4c2CCC4(C)C)CCC3)cc1CO` (single isomer, unassigned) [Compound 652b], under setting [3], the IC50 was greater than 30000 nM.

Turning to `CCn1ccc(S(N)(=O)=NC(=O)Nc2c3c(nc4c2CCC4(C)C)CCC3)n1` (single isomer, unassigned) [Compound 697a, (S) or (R)-N′-((3,3-dimethyl-1,2,3,5,6,7-hexahydrodicyclopenta [b,e]pyridin-8-yl)carbamoyl)-1-ethyl-1H-pyrazole-3-sulfonimidamide], the IC50 under setting [1] lay within 5000 to 30000 nM.

`Cc1c(C(F)(F)F)nc2c(c1NC(=O)N=S(N)(=O)c1cnn(C(F)F)c1)CCC2` (single isomer, unassigned) [Compound 617b, (S) or (R)-1-(Difluoromethyl)-N′-((3-methyl-2-(trifluoromethyl)-6,7-dihydro-5H-cyclopenta[b]pyridin-4-yl)carbamoyl)-1H-pyrazole-4-sulfonimidamide]: the IC50 under setting [3] is greater than 30000 nM.

For `CC(C)c1cnc(F)c(C(C)C)c1NC(=O)N=S(N)(=O)c1cnc(C(C)(C)O)s1` (stereo not shown) [Compound 115, N′-((2-fluoro-3,5-diisopropylpyridin-4-yl)carbamoyl)-2-(2-hydroxypropan-2-yl)thiazole-5-sulfonimidamide], under setting [5], the 50% inhibitory concentration (IC50) fell in the range of 1000 to 5000 nM.

`CC(C)c1ncc(F)c(C(C)C)c1NC(=O)N=S(N)(=O)c1cc(C(C)(C)O)cs1` (single isomer, unassigned) [Compound 148b, (S) or (R)-N′-((5-fluoro-2,4-diisopropylpyridin-3-yl)carbamoyl)-4-(2-hydroxypropan-2-yl)thiophene-2-sulfonimidamide]: the IC50 under setting [6] lay in the range of 1000 to 5000 nM.

Turning to `Cc1nc2c(c(NC(=O)N=S(N)(=O)c3cc(C(C)(C)O)cs3)c1C1CC1)CCC2` (single isomer, unassigned) [Compound 623a, (R) or (S)-N′-((3-cyclopropyl-2-methyl-6,7-dihydro-5H-cyclopenta[b]pyridin-4-yl)carbamoyl)-4-(2-hydroxypropan-2-yl)thiophene-2-sulfonimidamide], under setting [1], the 50% inhibitory concentration (IC50) was 40 to 200 nM.

On to `Cc1c(C2CCC2)nc2c(c1NC(=O)N=S(N)(=O)c1cc(C(C)(C)O)cs1)CCC2` (single isomer, unassigned) [Compound 658a, (S) or (R)-N′-((2-cyclobutyl-3-methyl-6,7-dihydro-5H-cyclopenta[b]pyridin-4-yl)carbamoyl)-4-(2-hydroxypropan-2-yl)thiophene-2-sulfonimidamide], for which the IC50 under setting [3] was greater than 30000 nM.

In the case of `Cc1c(C(C)C)nc2c(c1NC(=O)N=S(N)(=O)c1sc(C(C)(C)O)cc1F)CCC2` (stereo not shown) [Compound 645, 3 -Fluoro-5-(2-hydroxypropan-2-yl)-N′-((2-isopropyl-3-methyl-6,7-dihydro-5H-cyclopenta[b]pyridin-4-yl)carbamoyl)thiophene-2-sulfonimidamide], the half-inhibitory concentration (IC50) under setting [4] lay in the range of 40 to 200 nM.
